Measured values taken from patent publication US20060058379A1, “Connexin 26 inhibitor and cancer metastasis inhibitors” (priority 2002, published 2006).
Entries after “also recorded” stand apart in the source; their conditions may differ.

How the values were obtained:
[1] = Death of mice due to causes other than cancer under daily administration (Example 5); type: in vivo, mouse; conditions: C57B1/6 mice, approximately two months, FIG. 5
connexin 43 = biological target: T1, connexin 43 (Rattus norvegicus, UniProt P08050); test: Dye-transfer assay (GJIC) in HeLa-Cx43 cells; type: cell-based; conditions: HeLa-Cx43, calcein/DiI dye transfer, FIG. 1
T1 construct: contained a cDNA fragment of an entire coding region of rat Cx43; expressed in transfected cells; host or cells: HeLa cells stably transfected with pCX4bsr-Cx43 (clone HeLa-Cx43)
T1 sequence (P08050 2-382): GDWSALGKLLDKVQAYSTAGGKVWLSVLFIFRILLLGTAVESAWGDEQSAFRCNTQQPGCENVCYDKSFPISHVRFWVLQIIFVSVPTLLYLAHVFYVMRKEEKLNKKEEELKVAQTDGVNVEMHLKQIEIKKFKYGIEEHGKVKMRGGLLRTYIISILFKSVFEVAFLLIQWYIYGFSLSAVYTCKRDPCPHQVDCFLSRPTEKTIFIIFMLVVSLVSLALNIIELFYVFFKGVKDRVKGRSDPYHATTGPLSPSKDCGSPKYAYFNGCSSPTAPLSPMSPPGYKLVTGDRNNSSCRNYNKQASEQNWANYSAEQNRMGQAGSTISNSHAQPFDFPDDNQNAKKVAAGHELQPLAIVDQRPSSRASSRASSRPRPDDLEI
From the text: A pCX4bsr vector was derived from the pCXbsr vector (T Akagi., et al., 2000, Proc. Natl. Acad. Sci. USA) with minor modification. The pCX4bsr vector was kindly given by Dr. T Akagi (Osaka Bioscience Institute, Osaka, Japan). The pBluescriptII SK+plasmid vector contained a cDNA fragment of an entire coding region of rat Cx43 between the Spel and ClaI sites, and was constructed previously (Y. Omori., et al., 1998, Int. J. Cancer). The Cx43cDNA was excised by digesting NotI and HincII, and being ligated with the pCX4bsr where NotI and HincII were digested. HeLa cells were transfected with the resulting pCX4bsr-Cx43 vector by using the TransFast transfection regent. […]
(§1) Cells containing the gap junction-impermeable DiI (red fluorescence) were identified as donor cells. […]
The level of gap junction cell-to-cell communication (GJIC) was scored by the following methods.
Donor cells were scored as 0 for no dye-coupling, as 1 for dye-coupling from a donor cell to an adjacent recipient cell, and as 2 or 3 when calcein transferred to the adjacent recipient cell further transfers to a second or a third adjacent cell, subsequently, in a direction away from the donor cell. […] The experiments were repeated three times and mean and standard deviation of score counts were calculated for each factor. […]

[2] = test system: BL6 cells (substrains of B16 mouse melanoma cells); test: Cancer metastasis inhibitory action test 2: spontaneous lung metastasis after subcutaneous BL6 inoculation; type: in vivo; conditions: C57B1/6 mice, counted four weeks after dismembering
Protocol: After subcutaneously inoculating 1×10^5 BL6 cells (substrains of B16 mouse melanoma cells) to a planter of each C57B1/6 mouse, the mice were classified into three groups. • 1) Control mice (Nt) with no treatment but transplanting […]; • 2) Oleamide (25 mg/kg/day) administration group: peritoneal injection of olive oil 0.2 ml dissolved with oleamide at concentration of 25 mg/kg/day once a day on consecutive days; and • 3) MI-18 (10 mg/kg/day) administration group: olive oil 0.2 ml dissolved with MI-18 at concentration of 10 mg/kg/day once a day on consecutive days.
The mice were treated in the above manners every day after the BL6 cells inoculation. Then, on about 18th day, tumors (about eight mm radical) formed at the injected points were removed by dismembering at knee joints. Then the mice were treated in the above manners for another two days after the dismembering. After that, mice were fed without the treatments. At four weeks after dismembering at the knee joints, the mice were euthanized, and metastasized tubercles in both left and right lungs (the number of focuses) were counted visually (refer to FIG. 2 (a) through (c) and FIG. 3). Cancer metastasis inhibitory action was evaluated using 15 mice for each group. […] Therefore, these materials are highly safe. […]

connexin 26 = biological target: T2, connexin 26 (Rattus norvegicus, UniProt P21994); test: Dye-transfer assay (GJIC) in HeLa-Cx26 cells; type: cell-based; conditions: HeLa-Cx26, calcein/DiI dye transfer, FIG. 1
T2 construct: expressed in transfected cells; host or cells: HeLa (human cervical carcinoma) subclone HeLa-Cx26
From the text: The connexin 26 inhibitory activity can be evaluated with dye-transfer assay, for example. Specifically, a gap junction level (GJIC score) against the connexin 26 is used for evaluation (c.f. Japanese Laid-Open Patent Publication No. 17184/2001, “Tokukai 2001-17184, publication date: Jan. 23, 2001, and M. Mensil et al. Cancer Res. Vol 55, 629-639 1995.).
With this method, labelling dye, which can be transferred to outside of cells only through the gap junctions, is introduced into cells. Then the cells are smeared on a monolayer culture or a tissue culture. […]
GJIC score can be calculated as described in following examples. That is, if no dye-coupling occurs with respect to the donor cells, “0” is scored; “1” is scored if dye-coupling from the donor cell to an adjacent receptive cell occurs; and “2” is scored if dye-coupling from the donor cell to a second adjacent cell occurs. In this manner, when dye-coupling to n^th adjacent cell from the donor cell occurs, “n” (an integer) is scored. […]
as §1
The level of gap junction cell-to-cell communication (GJIC) was scored by the following methods. […]

[3] = test system: BL6 cells (substrains of B16 mouse melanoma cells); test: Cancer metastasis inhibitory action test 1: spontaneous lung metastasis after subcutaneous BL6 inoculation; type: in vivo; conditions: C57B1/6 mice; for metastasized tubercles in lungs (number of foci) vs vehicle group: counted four weeks after dismembering
Protocol: The mice were treated in the above manners on consecutive days after the BL6 cells inoculation. Then, on about 18th day, tumors (about six mm in diameter) formed at inoculation points were removed by dismembering at knee joints. Then the mice were treated in the above manners for another two days after the dismembering. After that, the mice were fed without the treatments. At four weeks after the dismembering at the knee joints, the mice were euthanized, and metastasized tubercles in both left and right lungs (the number of focuses) were counted visually (refer to FIG. 2 (a) through (c) and FIG. 3). Cancer metastasis inhibitory action was evaluated using 10 mice for each group.

Question: Which “death of mice due to causes other than cancer” value ([1]; 10 mg/kg/day every day) does the source give for `CCCCCCCC[C@H]1O[C@H]1CCCCCCCC(N)=O` (relative stereo) [MI-18, 8-[(2S*3R*)-3-octyloxirane-2-yl]octanamide] here?
Answer: Its value is “no mice died due to other causes but cancer”.

Question: And the “inhibitory activity against connexin 43 (gap junction dye-coupling)” value (connexin 43)?
Answer: Its value is “specifically inhibits only connexin 26”.

Question: And the “metastasized tubercles in lungs (number of foci) vs untreated group” value ([2]; 10 mg/kg/day once a day)?
Answer: The value was “fewer metastasized tubercles and significantly exhibited cancer metastasis inhibitory activity”.

Question: What about the “inhibitory activity against connexin 26 (gap junction dye-coupling)” value (connexin 26) of the same compound?
Answer: The value was “exhibits inhibitory activity”.

Question: With `CCCCCCCC/C=C\CCCCCCCC(N)=O` [oleamide, 9(Z)-Octadecenamide] as the compound, how does the “death of mice due to causes other than cancer” value ([1]; 25 mg/kg/day every day, 25 mg/kg/day) read?
Answer: Its value is “death rates due to causes other than cancer were low; also recorded: no mice died due to other causes but cancer”.

Question: And the “inhibitory activity against connexin 43 (gap junction dye-coupling)” value (connexin 43)?
Answer: The value was “exhibited inhibitory action”.

Question: What about the “metastasized tubercles in lungs (number of foci) vs untreated group” value ([2]; 25 mg/kg/day peritoneal injection once a day) of the same compound?
Answer: Its value is “fewer metastasized tubercles and significantly exhibited cancer metastasis inhibitory activity”.

Question: And the “inhibitory activity against connexin 26 (gap junction dye-coupling)” value (connexin 26)?
Answer: Its value is “exhibited inhibitory action; also recorded: exhibits inhibitory activity”.

Question: And the “metastasized tubercles in lungs (number of foci) vs vehicle group” value ([3]; 25 mg/kg/day peritoneal injection twice a day)?
Answer: The value was “fewer metastasized tubercles and significantly exhibited cancer metastasis inhibitory action”.

Question: And the “metastasized tubercles in lungs (number of foci) vs vehicle group” value ([3]; 50 mg/kg/day twice a day)?
Answer: Its value is “fewer metastasized tubercles and significantly exhibited cancer metastasis inhibitory action”.

Question: And the “metastasized tubercles in lungs (number of foci)” value ([3]; 500 mg/kg/day, FIG. 2 (d))?
Answer: The value was “the similar result was obtained”.
